Test results from ChEMBL document CHEMBL1146007, “Binding of sulfonyl-containing arylalkylamines at human 5-HT6 serotonin receptors” (J Med Chem, 2006).

target: 5-hydroxytryptamine receptor 6 (Homo sapiens, UniProt P50406); experiment: Binding affinity to human 5HT6 receptor in HEK293 cells by radioligand binding assay; assay type: cell-based
Sequence (P50406 whole entry): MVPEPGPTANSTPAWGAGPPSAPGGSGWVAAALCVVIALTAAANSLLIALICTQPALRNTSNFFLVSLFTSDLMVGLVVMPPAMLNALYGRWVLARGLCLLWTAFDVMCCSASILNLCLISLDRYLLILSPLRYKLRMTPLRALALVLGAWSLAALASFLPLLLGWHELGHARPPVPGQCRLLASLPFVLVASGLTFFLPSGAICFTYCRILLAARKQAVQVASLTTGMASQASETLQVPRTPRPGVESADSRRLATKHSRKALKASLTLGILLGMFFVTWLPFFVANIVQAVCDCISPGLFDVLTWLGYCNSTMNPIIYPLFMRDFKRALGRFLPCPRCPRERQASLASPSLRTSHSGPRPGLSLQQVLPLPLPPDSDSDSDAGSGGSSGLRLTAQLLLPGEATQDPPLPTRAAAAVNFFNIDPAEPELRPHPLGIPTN

Row | SMILES | Ki [nM]
1 | NCCc1cccc(S(=O)(=O)c2ccccc2)c1 | 50
2 | O=S(=O)(c1ccccc1)c1ccccc1N1CCNCC1 | 4000
3 | NCc1cccc(NS(=O)(=O)c2ccccc2)c1 | 290
4 | O=S(=O)(c1ccccc1)c1ccc(N2CCNCC2)cc1 | 6.9
5 | NCCc1cccc(Sc2ccccc2)c1 | 115
6 | NCCc1cccc(NS(=O)(=O)c2ccccc2)c1 | 21
7 | CN(C)CCc1cccc(NS(=O)(=O)c2ccccc2)c1 | 52
8 | CNCCc1cccc(NS(=O)(=O)c2ccccc2)c1 | 38
9 | O=S(=O)(c1ccccc1)c1cccc(N2CCNCC2)c1 | 1.2
10 | O=S(=O)(Nc1cccc(N2CCNCC2)c1)c1ccccc1 | 62
11 | NCCc1ccc(S(=O)(=O)c2ccccc2)cc1 | 37
12 | NCCCc1cccc(NS(=O)(=O)c2ccccc2)c1 | 230
13 | Nc1cccc(NS(=O)(=O)c2ccccc2)c1 | 2840
14 | COc1ccc(NS(=O)(=O)c2ccccc2)cc1CCN | 17
15 | CN(C)CCc1ccn(S(=O)(=O)c2ccccc2)c1 | 15
16 | NCCc1cccc(S(=O)(=O)Nc2ccccc2)c1 | 70
17 | O=S(=O)(Nc1ccc(N2CCNCC2)cc1)c1ccccc1 | 85
18 | NCCc1ccc(NS(=O)(=O)c2ccccc2)cc1 | 38
